# Experimental data as given in US20110117020A1, “IMAGING DENDRIMER NANOPROBES AND USES THEREOF” (THE TRUSTEES OF THE UNIVERSITY OF PENNSYLVANIA, priority 2008, published 2011).
# Marks after values point to notes of the source that are not given here.
# Key:
# [1] = Steady state phosphorescence: emission maxima, quantum yields, lifetimes; type: physicochemical; conditions: for Phosphorescence φ: PhCN, deoxygenated, relative to fluorescence of H2TPP in deoxygenated benzene
# Experimental: (§1) Quartz fluorometric cells (Starna, Inc, 1 cm optical path length) were used in optical experiments. Optical spectra were recorded on a Perkin-Elmer Lambda 35 UV-Vis spectrophotometer. Steady state fluorescence and phosphorescence measurements were performed on a SPEX Fluorolog-2 spectrofluorometer (Jobin-Yvon Horiba), equipped with an infra-red enhanced R2658P PMT (Hamamatsu). Emission spectra were obtained using solutions with absorption at the excitation maxima of approximately 0.05 OD. Quantum yields of emission of all the synthesized compounds were measured relative to the fluorescence of tetraphenylporphyrin (φfl=0:11 in deox. C6H6).
# [2] = Optical absorption spectra (UV-Vis spectrophotometer); type: physicochemical; conditions: for Absorption log e / Absorption λmax: Table I; for Absorption Q band / Absorption Q band Ig ε / Absorption Soret band / Absorption Soret band Ig ε: Table II
# Experimental: as §1
# [3] = solution in PhCN, deoxygenated by Ar-bubbling
# [4] = solution in PhCN, deoxygenated by Ar-bubbling, above 900 nm large experimental errors
SMILES,Phosphorescence λmax ([1]; Table I) [nm],τ0 ([1]; Table I) [μs],φp ([1]; Table I),Absorption log e ([2]; first band),Absorption λmax ([2]; first band) [nm],Absorption log e ([2]; second band),Absorption λmax ([2]; second band) [nm],Phosphorescence φ [1],"Phosphorescence τ0 [1, 3] [μs]","Phosphorescence λmax [1, 4]",Absorption Q band [2] [nm],Absorption Q band Ig ε [2],Absorption Soret band [2] [nm],Absorption Soret band Ig ε [2]
O=C(O)c1cc(C(=O)O)cc(C2=C3N=C(C(c4cc(C(=O)O)cc(C(=O)O)c4)=c4c5ccccc5c5[n]4[Pd][n]4c2c2ccccc2c4C(c2cc(C(=O)O)cc(C(=O)O)c2)=C2N=C(C=5c4cc(C(=O)O)cc(C(=O)O)c4)c4ccccc42)c2ccccc23)c1,816,210,0.09,5.46,446,5.00,635,–,–,–,–,–,–,–
O=C(O)c1cc(C(=O)O)cc(C2=C3N=C(C(c4cc(C(=O)O)cc(C(=O)O)c4)=c4c5ccccc5c5[n]4[Pt][n]4c2c2ccccc2c4C(c2cc(C(=O)O)cc(C(=O)O)c2)=C2N=C(C=5c4cc(C(=O)O)cc(C(=O)O)c4)c4ccccc42)c2ccccc23)c1,791,41,0.30,5.23,433,5.00,622,–,–,–,–,–,–,–
"O=C(O)c1cc(C(=O)O)cc(C2=C3C=CC(=N3)C(c3cc(C(=O)O)cc(C(=O)O)c3)=c3ccc4[n]3[Pt][n]3c2ccc3C(c2cc(C(=O)O)cc(C(=O)O)c2)=C2C=CC(=N2)C=4c2cc(C(=O)O)cc(C(=O)O)c2)c1 [Octacarboxyporphyrin Pt, Octacarboxyporphyrin]",–,53,0.24,5.54,406,4.50,512,–,–,–,–,–,–,–

# Further lines, results first:
Phosphorescence λmax ([1]; Table I) [nm],τ0 ([1]; Table I) [μs],φp ([1]; Table I),Absorption log e ([2]; first band),Absorption λmax ([2]; first band) [nm],Absorption log e ([2]; second band),Absorption λmax ([2]; second band) [nm],Phosphorescence φ [1],"Phosphorescence τ0 [1, 3] [μs]","Phosphorescence λmax [1, 4]",Absorption Q band [2] [nm],Absorption Q band Ig ε [2],Absorption Soret band [2] [nm],Absorption Soret band Ig ε [2],SMILES
923,12,0.06,5.14,441,5.28,700,–,–,–,–,–,–,–,"O=C(O)c1cc(C(=O)O)cc(C2=C3N=C(C(c4cc(C(=O)O)cc(C(=O)O)c4)=c4c5cc6ccccc6cc5c5[n]4[Pt][n]4c2c2cc6ccccc6cc2c4C(c2cc(C(=O)O)cc(C(=O)O)c2)=C2N=C(C=5c4cc(C(=O)O)cc(C(=O)O)c4)c4cc5ccccc5cc42)c2cc4ccccc4cc23)c1 [Octacarboxytetra naphthoporphyrin Pt, Octacarboxytetra naphthoporphyrin]"
–,–,–,–,–,–,–,0.08,504,696 nm,526,4.57,422,5.61,CCCCOC(=O)c1cc(C(=O)OCCCC)cc(C2=C3C=CC(=N3)C(c3cc(C(=O)OCCCC)cc(C(=O)OCCCC)c3)=c3ccc4[n]3[Pd][n]3c2ccc3C(c2cc(C(=O)OCCCC)cc(C(=O)OCCCC)c2)=C2C=CC(=N2)C=4c2cc(C(=O)OCCCC)cc(C(=O)OCCCC)c2)c1 [Pd-1-OBu]
–,–,–,–,–,–,–,0.02,52,961 [c] nm,716,5.29,458,5.29,CCCCOC(=O)c1cc(C(=O)OCCCC)cc(C2=C3N=C(C(c4cc(C(=O)OCCCC)cc(C(=O)OCCCC)c4)=c4c5cc6ccccc6cc5c5[n]4[Pd][n]4c2c2cc6ccccc6cc2c4C(c2cc(C(=O)OCCCC)cc(C(=O)OCCCC)c2)=C2N=C(C=5c4cc(C(=O)OCCCC)cc(C(=O)OCCCC)c4)c4cc5ccccc5cc42)c2cc4ccccc4cc23)c1 [Pd-3-OBu]
